We go through 9 compounds from patent US20260176279A1, “DUAL RAF AND TUBULIN INHIBITORS AND METHODS OF USE THEREOF” (Deciphera Pharmaceuticals, LLC, priority 2023, published 2026).

SMILES strings stand for the structures. pIC50: −log10 of the molar value. Read-outs that look alike come from different tables or passages of the source.

The subject of assay [1] is MiaPaca-2 cells. Put plainly: MiaPaca-2 Cell Proliferation Assay. Type of assay: cell-based. Conditions: Homo sapiens, MIA PaCa-2. On the procedure:
MiaPaca-2 cells (catalog #CRL-1420) are obtained from the American Type Culture Collect (ATTC, Manassas, VA). Briefly, cells were grown in DMEM supplemented with 10% characterized fetal bovine serum (Invitrogen, Carlsbad, CA), 2.5% New Zealand sourced horse serum and 1% Penicillin/Streptomycin/L-Glutamine at 37° C., 5% CO2, and 95% humidity. Cells are expanded until reaching 70-95% confluency at which point they are sub-cultured or harvested for assay use. For assays completed in 96-well plates, a serial dilution of test compound is dispensed into a 96-well black clear bottom plate in triplicate. Three thousand cells are added per well in 200 μL complete growth medium in the 96-well plate. Plates are incubated for 67 to 72 h at 37° C., 5% CO2, and 95% humidity. At the end of the incubation, 40 μL of a […] solution of resazurin (Sigma, St. Louis, MO) in PBS is added to each well of the plate and plates are incubated for an additional 5 to 6 hours at 37° C., 5% CO2, and 95% humidity. For 384-well assays, a threefold, 8-point serial dilution of compound was spotted column wise into a 384 well black, clear bottom, tissue culture treated plate using the Beckman Coulter Echo 650. Likewise, a threefold, 8-point serial dilution of cobimetinib was spotted row wise into the 384 well black, clear bottom plate containing compound. DMSO concentration was constant across all wells at 0.4%. Seven hundred fifty cells are added per well in 50 μL complete growth medium in each 384-well plate. Plates are incubated for 67 to 72 h at 37° C., 5% CO2, and 95% humidity. At the end of the incubation, 10 μL of a 440 μM solution of resazurin (Sigma, St. Louis, MO) in PBS is added to each well of the plate and plates are incubated for an additional 4 to 6 h at 37° C., 5% CO2, and 95% humidity. Plates are read on a Synergy2 or equivalent reader (Biotek, Winooski VT) using an excitation of 540 nm and an emission of 600 nm. Data is analyzed using Prism software (Graphpad, San Diego, CA) to calculate IC50 values.

The subject of assay [2] is HCT-116 cells. As to the kind of experiment: HCT-116 Cell Proliferation Assay. Type of assay: cell-based. Conditions: Homo sapiens. On the procedure:
HCT-116 cells (catalog #CCL-247) are obtained from the American Type Culture Collect (ATCC, Manassas, VA). Briefly, cells are grown in McCoy's 5A supplemented with 10% characterized fetal bovine serum (Invitrogen, Carlsbad, CA) and 1% Penicillin/Streptomycin/L-Glutamine at 37° C., 5% CO2, and 95% humidity. Cells are expanded until reaching 70-95% confluency at which point they are sub-cultured or harvested for assay use. A serial dilution of test compound is dispensed into a 384-well black clear bottom plate in triplicate. 375 cells are added per well in 50 μL complete growth medium in the 384-well plate. Plates are incubated for 67 to 72 h at 37° C., 5% CO2, and 95% humidity. At the end of the incubation, 40 μL of a […] solution of resazurin (Sigma, St. Louis, MO) in PBS is added to each well of the plate and plates are incubated for an additional 4 to 5 hours at 37° C., 5% CO2, and 95% humidity. Plates are read on a Synergy2 or equivalent reader (Biotek, Winooski, VT) using an excitation of 540 nm and an emission of 600 nm. Data is analyzed using Prism software (Graphpad, San Diego, CA) to calculate IC50 values.

The test system of assay [3] is HPAF-II cells. As to the kind of experiment: HPAF-II Cell Proliferation Assay. It is filed as cell-based. Conditions: Homo sapiens. On the procedure:
HPAF-II cells (catalog #CRL-1997) are obtained from the American Type Culture Collect (ATCC, Manassas, VA). Briefly, cells are grown in Minimum Essential Media supplemented with 10% characterized fetal bovine serum (Invitrogen, Carlsbad, CA) and 1% Penicillin/Streptomycin/L-Glutamine at 37° C., 5% CO2, and 95% humidity. Cells are expanded until reaching 70-95% confluency at which point they are sub-cultured or harvested for assay use. A serial dilution of test compound is dispensed into a 384-well black clear bottom plate in triplicate. 750 cells are added per well in 50 μL complete growth medium in the 384-well plate. Plates are incubated for 115 to 120 h at 37° C., 5% CO2, and 95% humidity. At the end of the incubation, 40 μL of a […] solution of resazurin (Sigma, St. Louis, MO) in PBS is added to each well of the plate and plates are incubated for an additional 18 to 24 h at 37° C., 5% CO2, and 95% humidity. Plates are read on a Synergy2 or equivalent reader (Biotek, Winooski, VT) using an excitation of 540 nm and an emission of 600 nm. Data is analyzed using Prism software (Graphpad, San Diego, CA) to calculate IC50 values.

Assay [4] addresses T1, B-Raf kinase (Homo sapiens, UniProt P15056).
T1 construct: GST (N); purchased Sigma
Put plainly: Biochemical Assay for B-Raf (coupled pyruvate kinase/lactate dehydrogenase assay).

The target in assay [5] is T2, C-Raf kinase (Homo sapiens, UniProt P04049, Y340D/Y341D).
T2 construct: C-Raf residues 306-end; Y340D, Y341D with N-; GST (N); purchased Eurofins
As to the kind of experiment: Biochemical Assay for C-Raf (coupled pyruvate kinase/lactate dehydrogenase assay).

Assay [6] relates to tubulin. Put plainly: Cellular Tubulin Polymerization Assay (HCT-116 cells). Type of assay: cell-based.
Setting [7] is: Table 1, inhibition of biochemical activity, read-out: BRAF.
Setting [8] is: Table 1, inhibition of biochemical activity, read-out: CRAF.
Where [9] appears, read: Table 2, inhibition of cell proliferation, read-out: MiaPaca-2.
Setting [10] is: Table 3, read-out: MiaPaca-2 IC50.
The mark [11] stands for this setting: HCT-116, Table 3, read-out: HCT-116 IC50.
Where [12] appears, read: HPAF-II, Table 3, read-out: HPAF-II IC50.
The mark [13] stands for this setting: Table 3, HCT-116 cells, read-out: Tubulin Cellular IC50.
Setting [14] is: Table 2, inhibition of cell proliferation, read-out: HCT-116.
[15] abbreviates: Table 2, inhibition of cell proliferation, read-out: HPAF-II.
[16] abbreviates: read-out: Tubulin Cellular, Table 5, HCT-116 cells.
Setting [17] is: HCT-116, Table 4, read-out: HCT-116 IC50.
Where [18] appears, read: Table 4, HCT-116 cells, read-out: Tubulin Cellular IC50.

T2 sequence (P04049 307-648 Y340D/Y341D): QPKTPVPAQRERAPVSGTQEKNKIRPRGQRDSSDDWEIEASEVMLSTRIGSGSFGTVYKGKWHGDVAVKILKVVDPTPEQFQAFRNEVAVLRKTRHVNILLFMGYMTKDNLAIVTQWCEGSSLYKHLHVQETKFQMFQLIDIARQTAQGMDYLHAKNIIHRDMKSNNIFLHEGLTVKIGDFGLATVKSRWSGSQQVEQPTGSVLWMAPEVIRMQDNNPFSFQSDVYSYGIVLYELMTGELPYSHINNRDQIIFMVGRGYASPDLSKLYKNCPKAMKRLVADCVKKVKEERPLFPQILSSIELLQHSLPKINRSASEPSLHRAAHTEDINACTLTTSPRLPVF
T1 sequence (P15056 416-766): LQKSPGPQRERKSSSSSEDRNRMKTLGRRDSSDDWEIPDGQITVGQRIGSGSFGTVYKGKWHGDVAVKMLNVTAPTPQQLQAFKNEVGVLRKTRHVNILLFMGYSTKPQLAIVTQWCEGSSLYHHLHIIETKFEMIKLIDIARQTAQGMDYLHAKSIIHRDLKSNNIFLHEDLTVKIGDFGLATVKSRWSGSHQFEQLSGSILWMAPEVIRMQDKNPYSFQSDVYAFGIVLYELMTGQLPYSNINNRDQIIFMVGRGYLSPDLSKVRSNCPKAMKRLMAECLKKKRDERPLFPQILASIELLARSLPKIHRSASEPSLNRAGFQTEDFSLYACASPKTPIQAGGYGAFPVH

With `Cc1ccc2c(Nc3cccc(Cl)c3F)nccc2c1NC(=O)c1csc2c(N)ncnc12` [Belvarafenib, reference compound], the pIC50 is 5.00 to 6.00 in assay [1] (Table 5, read-out: MiaPaca-2); 6.00 to 6.30 in assay [2] (Table 5, read-out: HCT-116); 5.00 to 6.00 in assay [3] (Table 5, read-out: HPAF-II).

On to `Cc1ccc(NC(=O)Nc2ccc(C(F)(F)F)nc2)cc1-c1ccnc(-c2ccnc(NC(=O)CN(C)C)c2)c1` [Example 18], for which the pIC50 in assay [4] (setting [7]) was over 7.00; in assay [4] (Table 3, read-out: BRAF IC50) it was over 7.00; in assay [5] (setting [8]), over 7.00; in assay [5] (Table 3, read-out: CRAF IC50), over 7.00; in assay [1] (setting [9]) it was over 7.00; in assay [1] (setting [10]) it was over 7.00. For the same compound, the pIC50 in assay [2] (setting [11]), in assay [3] (setting [12]) and in assay [6] (setting [13]) was 6.30 to 7.00 throughout.

For `CNc1cc(-c2cc(-c3cc(NC(=O)Nc4ccc(C(F)(F)F)nc4)ccc3C)ccn2)ccn1` [Example 19], the pIC50 in assay [4] (setting [7]) was 6.30 to 7.00; in assay [4] (Table 3, read-out: BRAF IC50), over 7.00; in assay [5] (setting [8]) it was over 7.00; in assay [5] (Table 3, read-out: CRAF IC50), over 7.00; in assay [1] (setting [9]), 6.30 to 7.00; in assay [1] (setting [10]) it was 6.30 to 7.00. The pIC50 was 6.30 to 7.00 in assay [2] (setting [11]); 6.30 to 7.00 in assay [2] (setting [14]); 6.30 to 7.00 in assay [3] (setting [12]); 6.30 to 7.00 in assay [3] (setting [15]); over 7.00 in assay [6] (setting [13]).

`CNC(=O)c1cc(-c2cc(-c3cc(NC(=O)Nc4ccc(C(F)(F)F)nc4)ccc3C)ccn2)ccn1` [Example 20]: the pIC50 was 6.30 to 7.00 in assay [4] (setting [7]); 6.30 to 7.00 in assay [4] (Table 3, read-out: BRAF IC50); over 7.00 in assay [5] (setting [8]); over 7.00 in assay [5] (Table 3, read-out: CRAF IC50); over 7.00 in assay [1] (setting [9]); over 7.00 in assay [1] (setting [10]). The pIC50 was over 7.00 in assay [2] (setting [11]); over 7.00 in assay [2] (setting [14]); 6.30 to 7.00 in assay [3] (setting [12]); 6.30 to 7.00 in assay [3] (setting [15]); over 7.00 in assay [6] (setting [13]).

On to `Cc1ccc(NC(=O)Nc2ccc(C(F)(F)F)nc2)cc1-c1ccnc(N2CCOCC2)c1` [Example 36], for which the pIC50 was 6.30 to 7.00 in assay [4] (setting [7]); 6.30 to 7.00 in assay [4] (Table 3, read-out: BRAF IC50); over 7.00 in assay [5] (setting [8]); 6.30 to 7.00 in assay [5] (Table 3, read-out: CRAF IC50); over 7.00 in assay [1] (setting [9]); over 7.00 in assay [1] (setting [10]). Moreover, the pIC50 in assay [2] (setting [11]), in assay [2] (setting [14]), in assay [3] (setting [12]), in assay [3] (setting [15]) and in assay [6] (setting [13]) was over 7.00 each time.

For `Cc1ccc(NC(=O)N2CC[C@@H](CC(F)(F)F)C2)cc1-c1cc(N[C@H](C)CO)nc(N2CCOCC2)c1` [Exarafenib, reference compound], the pIC50 in assay [6] (setting [16]) is 5.00 to 6.00.

Take `C[C@@H](NC(=O)c1ncnc(N)c1Cl)c1ncc(C(=O)Nc2cc(C(F)(F)F)c(Cl)cn2)s1` [Tovorafenib, reference compound]: the pIC50 in assay [6] (setting [16]) was 5.00 to 6.00.

As for `CC(=O)Nc1cc(-c2cc(-c3cc(NC(=O)NCCC4(C)CC4)c(F)cc3C)ccn2)ccn1` [reference compound], the pIC50 in assay [4] (Table 4, read-out: BRAF IC50) was over 7.00; in assay [5] (Table 4, read-out: CRAF IC50), over 7.00; in assay [1] (Table 4, read-out: MiaPaca-2 IC50), 5.00 to 6.00; in assay [2] (setting [17]), 6.00 to 6.30; in assay [3] (HPAF-II, Table 4, read-out: HPAF-II IC50), 6.00 to 6.30; in assay [6] (setting [18]) it was 5.00 to 6.00.

In the case of `Cc1ccc(NC(=O)Nc2cccc(C(F)(F)F)c2)cc1-c1cc(OCCO)nc(N2CCOCC2)c1` [reference compound], the pIC50 in assay [2] (setting [17]) is 6.30 to 7.00; in assay [6] (setting [18]), 5.00 to 6.00.
